Data reported in patent US12077503B2, “Substituted cyclic amides and their use as herbicides” (FMC CORPORATION, priority 2015, dated 2024).

Experiments:
Assay type in all cases: in vivo
[1] = tested on: wheat (Triticum aestivum); assay: Test A postemergence; details: Triticum aestivum, post-emergence, 240 h
Method in brief: (§1)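 Each rating is a visual injury score from 0 to 100 given about 10 d after treatment, judged against untreated controls kept alongside in the greenhouse. In loam soil–sand blend, seeds got a preemergence directed soil spray, while postemergence plants were 2 to 10 cm tall at spraying.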

[2] = tested on: Galium (catchweed bedstraw, Galium aparine); assay: Test A postemergence; details: Galium, post-emergence, 240 h
Method in brief: as §1

[3] = tested on: ryegrass, Italian (Italian ryegrass, Lolium multiflorum); assay: Test A postemergence; details: Lolium multiflorum, post-emergence, 240 h
Method in brief: as §1

[4] = tested on: pigweed (Amaranthus retroflexus); assay: Test A postemergence; details: Amaranthus retroflexus, post-emergence, 240 h
Method in brief: as §1

[5] = tested on: ragweed (common ragweed, Ambrosia elatior); assay: Test A postemergence; details: Ambrosia artemisiifolia, post-emergence, 240 h
Method in brief: as §1

Kochia (Kochia scoparia) [6] = assay: Test A postemergence; details: Bassia scoparia, post-emergence, 240 h
Method in brief: as §1

[7] = tested on: giant foxtail (Setaria faberii); assay: Test A postemergence; details: Setaria faberi, post-emergence, 240 h
Method in brief: as §1

corn (Zea mays) = assay: Test A postemergence; details: Zea mays, post-emergence, 240 h
Method in brief: as §1

[8] = tested on: barnyardgrass (Echinochloa crus-galli); assay: Test A postemergence; details: Echinochloa crus-galli, post-emergence, 240 h
Method in brief: as §1

[9] = tested on: blackgrass (Alopecurus myosuroides); assay: Test A postemergence; details: Alopecurus myosuroides, post-emergence, 240 h
Method in brief: as §1

[10] = tested on: ducksalad (Heteranthera limosa); assay: Test B flooded paddy test; details: Heteranthera limosa, 250 g ai/ha, Flood; 0 to 100 scale where 0 is no effect and 100 is complete control; read-out: Ducksalad plant response rating
Method in brief: (§2)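 Percent control, visually estimated after 13–15 d in the greenhouse on a 0–100 basis, compares treated pots with untreated ones; compound was put into paddy water 3 cm above the soil when plants had two leaves.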

[11] = tested on: barnyardgrass (Echinochloa crus-galli); assay: Test B flooded paddy test; details: Echinochloa crus-galli, 250 g ai/ha, Flood; 0 to 100 scale where 0 is no effect and 100 is complete control; read-out: Barnyardgrass plant response rating
Method in brief: as §2

rice (Oryra sativa) = assay: Test B flooded paddy test; details: Oryza sativa, 250 g ai/ha, Flood; 0 to 100 scale where 0 is no effect and 100 is complete control; read-out: Rice plant response rating
Method in brief: as §2

[12] = tested on: sedge, umbrella (small-flower umbrella sedge, Cyperus difformis); assay: Test B flooded paddy test; details: Cyperus difformis, 250 g ai/ha, Flood; 0 to 100 scale where 0 is no effect and 100 is complete control; read-out: Sedge, Umbrella plant response rating
Method in brief: as §2

[13] = tested on: ryegrass, Italian (Italian ryegrass, Lolium multiflorum); assay: Test A preemergence; details: Lolium multiflorum, pre-emergence, 240 h, 0 to 100 scale where 0 is no effect and 100 is complete control, read-out: Ryegrass, Italian plant response rating
Method in brief: as §1

[14] = tested on: pigweed (Amaranthus retroflexus); assay: Test A preemergence; details: Amaranthus retroflexus, pre-emergence, 240 h, 0 to 100 scale where 0 is no effect and 100 is complete control, read-out: Pigweed plant response rating
[15] = tested on: ragweed (common ragweed, Ambrosia elatior); assay: Test A preemergence; details: Ambrosia artemisiifolia, pre-emergence, 240 h, 0 to 100 scale where 0 is no effect and 100 is complete control, read-out: Ragweed plant response rating
Method in brief: as §1

Kochia (Kochia scoparia) [16] = assay: Test A preemergence; details: Bassia scoparia, pre-emergence, 240 h, 0 to 100 scale where 0 is no effect and 100 is complete control, read-out: Kochia plant response rating
Method in brief: as §1

[17] = tested on: giant foxtail (Setaria faberii); assay: Test A preemergence; details: Setaria faberi, pre-emergence, 240 h, 0 to 100 scale where 0 is no effect and 100 is complete control, read-out: Foxtail, Giant plant response rating
Method in brief: as §1

[18] = tested on: barnyardgrass (Echinochloa crus-galli); assay: Test A preemergence; details: Echinochloa crus-galli, pre-emergence, 240 h, 0 to 100 scale where 0 is no effect and 100 is complete control, read-out: Barnyardgrass plant response rating
Method in brief: as §1

[19] = 125 g ai/ha, preemergence, approx. 10 d

Cc1ccc([C@H]2CN(C)C(=O)[C@@H]2C(=O)Nc2cc(F)c(F)c(F)c2F)cc1 [Compound 1071]
plant injury at 125 g/ha ([1]; 125 g ai/ha, postemergence, visual injury on 0 to 100 scale (0 no effect, 100 complete control), approx. 10 d, read-out: Wheat plant response rating): 0%
plant injury at 31 g/ha ([1]; Postemergence, 31 g ai/ha, visual injury after approx. 10 d, 0 to 100 scale, 0 no effect, 100 complete control, read-out: Plant response rating, Wheat): 0%
pest or weed control at 125 g/ha ([2]; 125 g ai/ha, postemergence, visual injury on 0 to 100 scale (0 no effect, 100 complete control), approx. 10 d, read-out: Galium plant response rating): 0%
pest or weed control at 31 g/ha ([2]; Postemergence, 31 g ai/ha, visual injury after approx. 10 d, 0 to 100 scale, 0 no effect, 100 complete control, read-out: Plant response rating, Galium): 0%
pest or weed control at 125 g/ha ([3]; 125 g ai/ha, postemergence, visual injury on 0 to 100 scale (0 no effect, 100 complete control), approx. 10 d, read-out: Ryegrass, Italian plant response rating): 0%
pest or weed control at 31 g/ha ([3]; Postemergence, 31 g ai/ha, visual injury after approx. 10 d, 0 to 100 scale, 0 no effect, 100 complete control, read-out: Plant response rating, Ryegrass, Italian): 0%
pest or weed control at 125 g/ha ([4]; 125 g ai/ha, postemergence, visual injury on 0 to 100 scale (0 no effect, 100 complete control), approx. 10 d, read-out: Pigweed plant response rating): 0%
pest or weed control at 31 g/ha ([4]; Postemergence, 31 g ai/ha, visual injury after approx. 10 d, 0 to 100 scale, 0 no effect, 100 complete control, read-out: Plant response rating, Pigweed): 0%
pest or weed control at 125 g/ha ([5]; 125 g ai/ha, postemergence, visual injury on 0 to 100 scale (0 no effect, 100 complete control), approx. 10 d, read-out: Ragweed plant response rating): 0%
pest or weed control at 31 g/ha ([5]; Postemergence, 31 g ai/ha, visual injury after approx. 10 d, 0 to 100 scale, 0 no effect, 100 complete control, read-out: Plant response rating, Ragweed): 0%
pest or weed control at 125 g/ha (Kochia (Kochia scoparia) [6]; 125 g ai/ha, postemergence, visual injury on 0 to 100 scale (0 no effect, 100 complete control), approx. 10 d, read-out: Kochia plant response rating): 0%
pest or weed control at 31 g/ha (Kochia (Kochia scoparia) [6]; Postemergence, 31 g ai/ha, visual injury after approx. 10 d, 0 to 100 scale, 0 no effect, 100 complete control, read-out: Plant response rating, Kochia): 0%
pest or weed control at 125 g/ha ([7]; 125 g ai/ha, postemergence, visual injury on 0 to 100 scale (0 no effect, 100 complete control), approx. 10 d, read-out: Foxtail, Giant plant response rating): 80%
pest or weed control at 31 g/ha ([7]; Postemergence, 31 g ai/ha, visual injury after approx. 10 d, 0 to 100 scale, 0 no effect, 100 complete control, read-out: Plant response rating, Foxtail, Giant): 20%
plant injury at 125 g/ha (corn (Zea mays); 125 g ai/ha, postemergence, visual injury on 0 to 100 scale (0 no effect, 100 complete control), approx. 10 d, read-out: Corn plant response rating): 0%
Corn plant response rating (crop injury, 0 = no effect, 100 = complete kill) at 31 g/ha (corn (Zea mays); Postemergence, 31 g ai/ha, visual injury after approx. 10 d, 0 to 100 scale, 0 no effect, 100 complete control): 0%
pest or weed control at 125 g/ha ([8]; 125 g ai/ha, postemergence, visual injury on 0 to 100 scale (0 no effect, 100 complete control), approx. 10 d, read-out: Barnyardgrass plant response rating): 90%
pest or weed control at 31 g/ha ([8]; Postemergence, 31 g ai/ha, visual injury after approx. 10 d, 0 to 100 scale, 0 no effect, 100 complete control, read-out: Plant response rating, Barnyardgrass): 30%
pest or weed control at 125 g/ha ([9]; 125 g ai/ha, postemergence, visual injury on 0 to 100 scale (0 no effect, 100 complete control), approx. 10 d, read-out: Blackgrass plant response rating): 0%
pest or weed control at 31 g/ha ([9]; Postemergence, 31 g ai/ha, visual injury after approx. 10 d, 0 to 100 scale, 0 no effect, 100 complete control, read-out: Plant response rating, Blackgrass): 0%
pest or weed control at 250 g/ha [10]: 98%
pest or weed control at 250 g/ha [11]: 40%
pest or weed control at 250 g/ha (rice (Oryra sativa)): 0%
pest or weed control at 250 g/ha [12]: 0%
pest or weed control at 31 g/ha ([13]; 31 g ai/ha, Preemergence): 0%
pest or weed control at 125 g/ha [13, 19]: 0%
pest or weed control at 31 g/ha ([14]; 31 g ai/ha, Preemergence): 0%
pest or weed control at 125 g/ha [14, 19]: 0%
pest or weed control at 31 g/ha ([15]; 31 g ai/ha, Preemergence): 0%
pest or weed control at 125 g/ha [15, 19]: 0%
pest or weed control at 31 g/ha (Kochia (Kochia scoparia) [16]; 31 g ai/ha, Preemergence): 0%
pest or weed control at 125 g/ha (Kochia (Kochia scoparia) [16]; [19]): 0%
pest or weed control at 31 g/ha ([17]; 31 g ai/ha, Preemergence): 90%
pest or weed control at 125 g/ha [17, 19]: 100%
pest or weed control at 31 g/ha ([18]; 31 g ai/ha, Preemergence): 40%
pest or weed control at 125 g/ha [18, 19]: 90%
